Data reported in patent US20220117938A1, “COMBINATON THERAPY WITH A DON PRODRUG AND AN IMMUNE CHECKPOINT INHIBITOR” (DRACEN PHARMACEUTICALS, INC., priority 2019, published 2022).

System: MC-38 tumors
Experiment: Anti-tumor efficacy of Compound 1 in the subcutaneous MC-38 murine colorectal cancer model: dose response (Example 1)
Format: in vivo, Mus musculus
Conditions: for Tumor volume (mm^3), Mean ± SEM: n = 8; for RTV at day 14 / T/C (%) / TGI (%) / Tumor Size (mm^3) at day 14: day 14; for ILS (%) / MST: endpoint tumor volume 2000 mm^3
Protocol: Female C57BL/6 mice were inoculated subcutaneously at right flank with MC-38 cells for tumor development. Four days after tumor inoculation, 64 mice with tumor size ranging from 50-92 mm^3 (average tumor size 63 mm^3) were selected and assigned into 8 groups using stratified randomization with 8 mice per group based upon their tumor volumes. The treatments were started from the day of randomization (defined as D0), Group 1 was treated with Vehicle (Tween 80:Ethanol:Saline—5:5:90 v/v/v), S.C. QD, Group 2 was treated with Compound 1 (0.1 mg/kg), S.C. QD, Group 3 was treated with Compound 1 (0.3 mg/kg), S.C. QD, Group 4 was treated with Compound 1 (0.5 mg/kg), S.C. QD, Group 5 was treated with Compound 1 (1 mg/kg), S.C. QD, Group 6 was treated with Compound 1 (3 mg/kg), S.C. QD*5 days followed by Compound 1 (1 mg/kg), S.C. QD*9 days (2 cycles), Group 7 was treated with Compound 1 (1 mg/kg), S.C. QD*5 days followed by Compound 1 (0.3 mg/kg), S.C. QD*9 days (2 cycles) and Group 8 was treated with Compound 1 (0.15 mg/kg), S.C. BID. The tumor sizes were measured three times per week during the treatment. The entire study was terminated on D74 after start of the treatment.
Animal Species: Mus musculus; Strain: C57BL/6; Age: 6-8 weeks; Sex: female; Body weight (at treatment start): 17-21 g.
The MC-38 tumor cells were maintained in vitro as a monolayer culture in DMEM medium supplemented with 10% heat inactivated fetal bovine serum and 100 μg/mL penicillin streptomycin at 37° C. in an atmosphere of 5% CO2 in air. The tumor cells were routinely subcultured twice weekly by trypsin-EDTA treatment. The cells growing to a confluency around 70%-80% were harvested and counted for tumor inoculation. The cultured MC-38 were harvested, re-suspended in base medium at a density of 1×10^7 cells/mL with viability>90%. Each mouse was inoculated subcutaneously at the right flank with 1×10^6 in 0.1 ml base medium for tumor development.
The treatments were started on day 4 after tumor inoculation when the tumor size reached 50-92 mm^3 (average tumor size 63 mm^3). Each group consisted of 8 tumor bearing mice. The testing article was administrated at a dosing volume of […] to the mice according to the predetermined regimen shown in Table 1-1. Testing article formulations were prepared according to standard procedures. Details regarding tumor measurements and endpoints, and statistical analysis are provided in EXAMPLE 3.
Tumor sizes were measured three times a week in two dimensions using a caliper, and the volume expressed in mm^3 using the formula: V=0.5 a×b^2 where a and b are the long and short diameters of the tumor, respectively. The tumor sizes were then used for the calculations of both tumor growth inhibition (TGI) and T/C values.
TGI is calculated for each group using the formula: […]
TVTreatment_DayN is the average tumor volume of a treatment group on a given day, TVTreatment_Day0 is the average tumor volume of the treatment group on the first day of treatment, TVVehicle_DayN is the average tumor volume of the vehicle control group on a given day, and TVVehicle_Day0 is the average tumor volume of the vehicle group on the first day of treatment.
The T/C value (in percent) is an indication of antitumor effectiveness, T/C (%)=RTVTreatment/RTVControl×100% (RTVTreatment: the mean RTV of the treatment group; RTVControl: the mean RTV of the vehicle treated group). RTV (relative tumor volume)=TVDayN/TVDay0. TVDayN and TVDay0 is the tumor volume on day N and Day 0 respectively. T/C (%)≤42% is considered as significant antitumor activity and <10% is considered as highly significant antitumor activity by the National Cancer Institute criteria.
Animal survival curve: When an individual animal reached to the termination endpoint (TV>2000 mm^3), the mouse was euthanized. The time from treatment initiation to the termination was deemed as its survival time. Survival curve was plotted by Kaplan-Meier method. Median survival time (MST) was calculated for each group. […]

[1] = 1 & 0.3 mg/kg (1 mg/kg QDx5 then 0.3 mg/kg QDx9 S.C.)
[2] = 3 & 1 mg/kg (3 mg/kg QDx5 then 1 mg/kg QDx9 S.C.)
[3] = Treatment (0.1) mg/kg, last line of the table

CC(=O)N[C@@H](Cc1c[nH]c2ccccc12)C(=O)N[C@@H](CCC(=O)C=[N+]=[N-])C(=O)OC(C)C [Compound 1, Isopropyl (S)-2-((S)-2-acetamido-3-(1H-indol-3-yl)propanamido)-6-diazo-5-oxohexanoate]
Tumor volume (mm^3), Mean ± SEM (0.1 mg/kg S.C. QD, Day 0): 62 ± 4 mm^3 | Tumor volume (mm^3), Mean ± SEM (0.1 mg/kg S.C. QD, Day 2): 91 ± 10 mm^3 | Tumor volume (mm^3), Mean ± SEM (0.1 mg/kg S.C. QD, Day 4): 112 ± 11 mm^3 | Tumor volume (mm^3), Mean ± SEM (0.1 mg/kg S.C. QD, Day 7): 183 ± 32 mm^3 | Tumor volume (mm^3), Mean ± SEM (0.1 mg/kg S.C. QD, Day 9): 247 ± 40 mm^3 | Tumor volume (mm^3), Mean ± SEM (0.1 mg/kg S.C. QD, Day 11): 368 ± 72 mm^3 | Tumor volume (mm^3), Mean ± SEM (0.1 mg/kg S.C. QD, Day 14): 744 ± 154 mm^3 | RTV at day 14 (0.1 mg/kg S.C. QD): 12.29 ± 7.63 | T/C (%) (0.1 mg/kg S.C. QD): 40.26% | TGI (%) (0.1 mg/kg S.C. QD): 62.52% | Tumor Size (mm^3) at day 14 (0.1 mg/kg S.C. QD): 743.79 ± 153.64 mm^3 | ILS (%) (0.1 mg/kg): 22% | MST (0.1 mg/kg): 19.5 days | ILS (%) (0.15 mg/kg (BID)): 88% | MST (0.15 mg/kg (BID)): 30 days | Tumor volume (mm^3), Mean ± SEM (0.15 mg/kg S.C. BID, Day 0): 63 ± 5 mm^3 | Tumor volume (mm^3), Mean ± SEM (0.15 mg/kg S.C. BID, Day 2): 87 ± 6 mm^3 | Tumor volume (mm^3), Mean ± SEM (0.15 mg/kg S.C. BID, Day 4): 109 ± 6 mm^3 | Tumor volume (mm^3), Mean ± SEM (0.15 mg/kg S.C. BID, Day 7): 195 ± 28 mm^3 | Tumor volume (mm^3), Mean ± SEM (0.15 mg/kg S.C. BID, Day 9): 237 ± 30 mm^3 | Tumor volume (mm^3), Mean ± SEM (0.15 mg/kg S.C. BID, Day 11): 288 ± 43 mm^3 | Tumor volume (mm^3), Mean ± SEM (0.15 mg/kg S.C. BID, Day 14): 369 ± 56 mm^3 | Tumor volume (mm^3), Mean ± SEM (0.3 mg/kg S.C. QD, Day 0): 62 ± 4 mm^3 | Tumor volume (mm^3), Mean ± SEM (0.3 mg/kg S.C. QD, Day 2): 76 ± 5 mm^3 | Tumor volume (mm^3), Mean ± SEM (0.3 mg/kg S.C. QD, Day 4): 88 ± 7 mm^3 | Tumor volume (mm^3), Mean ± SEM (0.3 mg/kg S.C. QD, Day 7): 110 ± 14 mm^3 | Tumor volume (mm^3), Mean ± SEM (0.3 mg/kg S.C. QD, Day 9): 143 ± 26 mm^3 | Tumor volume (mm^3), Mean ± SEM (0.3 mg/kg S.C. QD, Day 11): 140 ± 29 mm^3 | Tumor volume (mm^3), Mean ± SEM (0.3 mg/kg S.C. QD, Day 14): 235 ± 80 mm^3 | RTV at day 14 (0.3 mg/kg S.C. QD): 3.83 ± 3.95 | T/C (%) (0.3 mg/kg S.C. QD): 12.54% | TGI (%) (0.3 mg/kg S.C. QD): 90.47% | Tumor Size (mm^3) at day 14 (0.3 mg/kg S.C. QD): 235.18 ± 79.89 mm^3 | ILS (%) (0.3 mg/kg): 94% | MST (0.3 mg/kg): 31 days | Tumor volume (mm^3), Mean ± SEM (0.5 mg/kg S.C. QD, Day 0): 63 ± 5 mm^3 | Tumor volume (mm^3), Mean ± SEM (0.5 mg/kg S.C. QD, Day 2): 79 ± 4 mm^3 | Tumor volume (mm^3), Mean ± SEM (0.5 mg/kg S.C. QD, Day 4): 97 ± 8 mm^3 | Tumor volume (mm^3), Mean ± SEM (0.5 mg/kg S.C. QD, Day 7): 112 ± 8 mm^3 | Tumor volume (mm^3), Mean ± SEM (0.5 mg/kg S.C. QD, Day 9): 109 ± 7 mm^3 | Tumor volume (mm^3), Mean ± SEM (0.5 mg/kg S.C. QD, Day 11): 84 ± 9 mm^3 | Tumor volume (mm^3), Mean ± SEM (0.5 mg/kg S.C. QD, Day 14): 97 ± 17 mm^3 | RTV at day 14 (0.5 mg/kg S.C. QD): 1.63 ± 0.88 | T/C (%) (0.5 mg/kg S.C. QD): 5.33% | TGI (%) (0.5 mg/kg S.C. QD): 98.16% | Tumor Size (mm^3) at day 14 (0.5 mg/kg S.C. QD): 96.6 ± 16.6 mm^3 | ILS (%) (0.5 mg/kg): 131% | MST (0.5 mg/kg): 37 days | Tumor volume (mm^3), Mean ± SEM (1 mg/kg QDx5 then 0.3 mg/kg QDx9 S.C., 2 cycles, Day 0): 63 ± 4 mm^3 | Tumor volume (mm^3), Mean ± SEM (1 mg/kg QDx5 then 0.3 mg/kg QDx9 S.C., 2 cycles, Day 2): 73 ± 5 mm^3 | Tumor volume (mm^3), Mean ± SEM (1 mg/kg QDx5 then 0.3 mg/kg QDx9 S.C., 2 cycles, Day 4): 85 ± 7 mm^3 | Tumor volume (mm^3), Mean ± SEM (1 mg/kg QDx5 then 0.3 mg/kg QDx9 S.C., 2 cycles, Day 7): 97 ± 10 mm^3 | Tumor volume (mm^3), Mean ± SEM (1 mg/kg QDx5 then 0.3 mg/kg QDx9 S.C., 2 cycles, Day 9): 101 ± 9 mm^3 | Tumor volume (mm^3), Mean ± SEM (1 mg/kg QDx5 then 0.3 mg/kg QDx9 S.C., 2 cycles, Day 11): 116 ± 19 mm^3 | Tumor volume (mm^3), Mean ± SEM (1 mg/kg QDx5 then 0.3 mg/kg QDx9 S.C., 2 cycles, Day 14): 119 ± 22 mm^3 | Tumor volume (mm^3), Mean ± SEM (1 mg/kg S.C. QD, Day 0): 62 ± 4 mm^3 | Tumor volume (mm^3), Mean ± SEM (1 mg/kg S.C. QD, Day 2): 74 ± 5 mm^3 | Tumor volume (mm^3), Mean ± SEM (1 mg/kg S.C. QD, Day 4): 85 ± 5 mm^3 | Tumor volume (mm^3), Mean ± SEM (1 mg/kg S.C. QD, Day 7): 94 ± 5 mm^3 | Tumor volume (mm^3), Mean ± SEM (1 mg/kg S.C. QD, Day 9): 100 ± 7 mm^3 | Tumor volume (mm^3), Mean ± SEM (1 mg/kg S.C. QD, Day 11): 80 ± 8 mm^3 | Tumor volume (mm^3), Mean ± SEM (1 mg/kg S.C. QD, Day 14): 68 ± 12 mm^3 | RTV at day 14 (1 mg/kg S.C. QD): 1.13 ± 0.67 | T/C (%) (1 mg/kg S.C. QD): 3.71% | TGI (%) (1 mg/kg S.C. QD): 99.69% | Tumor Size (mm^3) at day 14 (1 mg/kg S.C. QD): 68.23 ± 12.12 mm^3 | ILS (%) (1 mg/kg, then 0.3 mg/kg): 131% | MST (1 mg/kg, then 0.3 mg/kg): 37 days | ILS (%) (1 mg/kg): 144% | MST (1 mg/kg): 39 days | Tumor volume (mm^3), Mean ± SEM (3 mg/kg QDx5 then 1 mg/kg QDx9 S.C., 2 cycles, Day 0): 63 ± 5 mm^3 | Tumor volume (mm^3), Mean ± SEM (3 mg/kg QDx5 then 1 mg/kg QDx9 S.C., 2 cycles, Day 2): 70 ± 3 mm^3 | Tumor volume (mm^3), Mean ± SEM (3 mg/kg QDx5 then 1 mg/kg QDx9 S.C., 2 cycles, Day 4): 83 ± 7 mm^3 | Tumor volume (mm^3), Mean ± SEM (3 mg/kg QDx5 then 1 mg/kg QDx9 S.C., 2 cycles, Day 7): 87 ± 8 mm^3 | Tumor volume (mm^3), Mean ± SEM (3 mg/kg QDx5 then 1 mg/kg QDx9 S.C., 2 cycles, Day 9): 90 ± 6 mm^3 | Tumor volume (mm^3), Mean ± SEM (3 mg/kg QDx5 then 1 mg/kg QDx9 S.C., 2 cycles, Day 11): 79 ± 10 mm^3 | Tumor volume (mm^3), Mean ± SEM (3 mg/kg QDx5 then 1 mg/kg QDx9 S.C., 2 cycles, Day 14): 43 ± 4 mm^3 | ILS (%) (3 mg/kg, then 1 mg/kg): 131% | MST (3 mg/kg, then 1 mg/kg): 37 days | RTV at day 14 [1]: 1.85 ± 0.82 | T/C (%) [1]: 6.05% | TGI (%) [1]: 96.95% | Tumor Size (mm^3) at day 14 [1]: 118.69 ± 21.92 mm^3 | RTV at day 14 [2]: 0.69 ± 0.16 | T/C (%) [2]: 2.27% | TGI (%) [2]: 101.09% | Tumor Size (mm^3) at day 14 [2]: 42.91 ± 3.89 mm^3 | RTV at day 14 [3]: 5.99 ± 2.92 | T/C (%) [3]: 19.62% | TGI (%) [3]: 83.19% | Tumor Size (mm^3) at day 14 [3]: 369.41 ± 56.37 mm^3
